This assay deals with MASP-2 (CCP1-CCP2-SP) (Homo sapiens (Human), UniProt O00187). Briefly: Enzymatic Assay for MASP-2 (fluorogenic substrate). Type of assay: biochemical. The following applies: fluorogenic substrate based on C2 cleavage site; room temperature; 20 mM HEPES pH 7.4, 140 mM NaCl, 0.1% Tween 20; 20 min. Here is the method:
The MASP-2 assay utilizes a fluorogenic substrate, based on the cleavage site for its natural substrate C2. The assay is run at room temperature in an assay buffer containing 20 mM HEPES, pH 7.4, 140 mM NaCl and 0.1% Tween 20. Assay parameters are adjusted such that the assay is linear with respect to time, enzyme, and substrate concentrations. Under these optimized assays conditions, IC50 values are equivalent to Ki values, except in a few cases of “tight binding” inhibitors. Cases of “tight binding” or possible “slow binding” inhibitors are handled by the methods described in Copeland R.A. (2013) Evaluation of Enzyme Inhibitors in Drug Discovery. 2nd Ed., John Wiley and Sons, Inc., Chapters 5-7.
The MASP-2 assay protocol is carried out as follows. Test compounds are serially diluted in DMSO and then 100 nL of each dilution is transferred to the assay plate(s). 10 μL of Assay Buffer is added, followed by 15 μL of Enzyme MASP-2 (CCP1-CCP2-SP) in Assay Buffer. 15 μL of Substrate in Assay Buffer is then added and mixed to start the reactions. After 20 min at room temperature, 15 μL of a stop solution (0.1 M acetic acid) is added, mixed and the plates are read on a SpectraMax i3x Microplate Reader and exported as Excel files. Each assay plate included a “no inhibitor” (DMSO Only) control, a “no enzyme” control and a reference inhibitor control. % Activity values=100*(average test comp. fluorescence−average “no enzyme” fluorescence)/(average “DMSO only” fluorescence−average “no enzyme” fluorescence). IC50 and Ki values are very reproducible, falling well within 2-fold.

Sequence of MASP-2 (CCP1-CCP2-SP) (O00187 445-686): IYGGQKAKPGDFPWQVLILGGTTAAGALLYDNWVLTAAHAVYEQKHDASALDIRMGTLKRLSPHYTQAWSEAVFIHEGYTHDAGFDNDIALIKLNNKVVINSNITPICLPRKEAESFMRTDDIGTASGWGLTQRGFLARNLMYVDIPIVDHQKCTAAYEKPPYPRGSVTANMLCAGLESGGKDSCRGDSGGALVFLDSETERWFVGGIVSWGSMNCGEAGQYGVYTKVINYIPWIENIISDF
Sequence of MASP-2 (CCP1-CCP2-SP) (O00187 287-444 partner): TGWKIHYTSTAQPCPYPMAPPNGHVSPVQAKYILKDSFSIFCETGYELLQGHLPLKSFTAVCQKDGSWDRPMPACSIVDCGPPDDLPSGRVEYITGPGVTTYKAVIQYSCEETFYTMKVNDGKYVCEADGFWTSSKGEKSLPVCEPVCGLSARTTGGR

In the case of `CCN1CC[C@H](c2ccccc2)C[C@@H]1C(=O)N[C@@H](C)C(=O)NCc1ccc(C(=N)N)cc1` [Compound I-21, (2R,4S)—N—((S)-1-((4-carbamimidoylbenzyl)amino)-1-OXOPROPAN-2-yl)-1-ethyl-4-phenylpiperidine-2-carboxamide], the Ki was under 500 nM. With `CCN1CC[C@H](c2cccc(-n3cccn3)c2)C[C@@H]1C(=O)N[C@@H](C)C(=O)NCc1cc(Cl)ccc1-n1cnnn1` [Compound I-22, (2R,4S)-4-(3-(1H-pyrazol-1-yl)phenyl)-N—((S)-1-((5-chloro-2-(1H-tetrazol-1-yl)benzyl)amino)-1-oxopropan-2-yl)-1-ethylpiperidine-2-carboxamide] the figure was under 500 nM; with `CC(C)[C@H](N)C(=O)O/N=C(\N)c1ccc(CNC(=O)[C@H](C)NC(=O)[C@H]2C[C@@H](c3ccccc3)CCN2)cc1` [Compound I-7, (2R,4S)—N—((S)-1-((4-((Z)—N′-((L-valyl)oxy)carbamimidoyl)benzyl)amino)-1-oxopropan-2-yl)-4-phenylpiperidine-2-carboxamide], under 500 nM.

The molecule `Cc1nc(N)ccc1CNC(=O)[C@@H]1CCN1C(=O)[C@H]1C[C@@H](c2ccccc2)CCN1C` [Compound I-16, (S)—N-((6-amino-2-methylpyridin-3-yl)methyl)-1-((2R,4S)-1-methyl-4-phenylpiperidine-2-carbonyl)azetidine-2-carboxamide] gave a Ki of under 500 nM. As for `C[C@H](NC(=O)[C@H]1C[C@@H](c2ccccc2)CC[N+]1(C)C)C(=O)NCc1ccc(C(=N)N)cc1` [Compound I-10, (2R,4S)-2-(((S)-1-((4-carbamimidoylbenzyl)amino)-1-oxopropan-2-yl)carbamoyl)-1,1-dimethyl-4-phenylpiperidin-1-ium 2,2,2-trifluoroacetate], the Ki is under 500 nM. Turning to `N=C(NC(=O)OCc1ccccc1)c1ccc(CNC(=O)[C@@H]2CCN2C(=O)[C@H]2C[C@@H](c3ccccc3)CCN2)cc1` [Compound I-19, benzyl (imino(4-(((S)-1-((2R,4S)-4-phenylpiperidine-2-carbonyl)azetidine-2-carboxamido)methyl)phenyl)methyl)carbamate], the Ki was in the range of 500 to 2500 nM. Turning to `C[C@H](NC(=O)[C@H]1C[C@@H](c2ccccc2)CCN1)C(=O)NCc1ccc(/C(N)=N/O)s1` [Compound I-24, (2R,4S)—N—((S)-1-(((5-((Z)—N-hydroxycarbamimidoyl)thiophen-2-yl)methyl)amino)-1-oxopropan-2-yl)-4-phenylpiperidine-2-carboxamide], the inhibition constant (Ki) is under 500 nM.

In turn, `C[C@H](NC(=O)[C@H]1C[C@@H](c2ccccc2)CCN1)C(=O)NCc1ccc(/C(N)=N/O)cc1` [Compound I-31, (2R,4S)—N—((S)-1-((4-((Z)—N′-hydroxycarbamimidoyl)benzyl)amino)-1-oxopropan-2-yl)-4-phenylpiperidine-2-carboxamide] had an inhibition constant Ki of 500 to 2500 nM. The molecule `CN1CC[C@H](c2ccccc2)C[C@@H]1C(=O)N1CC[C@H]1C(=O)NCc1ccc(C(=N)N)cc1` [Compound I-17, (S)—N-(4-carbamimidoylbenzyl)-1-((2R,4S)-1-methyl-4-phenylpiperidine-2-carbonyl)azetidine-2-carboxamide] came in with a Ki of under 500 nM. With `C[C@H](NC(=O)[C@H]1C[C@@H](c2ccccc2)CCN1CCC(=O)O)C(=O)NCc1ccc(C(=N)N)cc1` [Compound I-14, 3-((2R,4S)-2-(((S)-1-((4-carbamimidoylbenzyl)amino)-1-oxopropan-2-yl)carbamoyl)-4-phenylpiperidin-1-yl)propanoic acid] the figure was under 500 nM; with `C[C@H](NC(=O)[C@H]1C[C@@H](c2ccccc2)CCN1CCP(=O)(O)O)C(=O)NCc1cc2cnccc2[nH]1` [Compound I-15, (2-((2R,4S)-2-(((S)-1-(((1H-pyrrolo[3,2-c]pyridin-2-yl)methyl)amino)-1-oxopropan-2-yl)carbamoyl)-4-phenylpiperidin-1-yl)ethyl)phosphonic acid], under 500 nM; with `CCOC(=O)CCN1CC[C@H](c2ccccc2)C[C@@H]1C(=O)N[C@@H](C)C(=O)NCc1ccc(C(=N)N)cc1` [Compound I-13, ethyl 3-((2R,4S)-2-(((S)-1-((4-carbamimidoylbenzyl)amino)-1-oxopropan-2-yl)carbamoyl)-4-phenylpiperidin-1-yl)propanoate], under 500 nM. With `CCN1CC[C@H](c2ccccc2)C[C@@H]1C(=O)N[C@@H](C)C(=O)NCc1ccc(C(=N)NC(=O)OCc2ccccc2)cc1` [Compound I-20, benzyl ((4-(((S)-2-((2R,4S)-1-ethyl-4-phenylpiperidine-2-carboxamido)propanamido)methyl)phenyl)(imino)methyl)carbamate] the figure was 2500 to 10000 nM.

Values taken from US11661418B2, “MASP-2 inhibitors and methods of use” (Omeros Corporation, priority 2019, dated 2023).
